The values below come from ChEMBL document CHEMBL1201862, “PubChem BioAssay data set” (2004).

SMILES strings stand for the structures.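 Growth conditions: 96-well plates. Treatment: test compound, 48 hours, 5 concentrations. Analysis: linear interpolation between bracketing concentrations; unreached endpoints set to highest concentration. GI50: concentration for 50% inhibition of growth.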 Activity calls are given as the source filed them. Rule as the data show it: active = GI50 up to about 1.1 µM and inactive = higher. Bounds are passed on as bounds.

Among the test systems are UO-31; T47D; MDA-MB-435; OVCAR-3; HL-60; UACC-62; NCI-H226; BT-549; NCI-H522; MOLT-4; ACHN; IGROV-1; 786-0; HCT-116; M14; SF-268; EKVX; UACC-257; NCI-H460; SK-OV-3.
Assay in all cases: DTP human tumour cell line panel, 48 h

On to `Nc1ccn(C2OC(CO)C(O)C2O)c(=O)n1` (configuration not stated), for which the GI50 is 6.15 µM (inactive) with UO-31; 330 µM (inactive) in the test on T47D; 35.4 µM (inactive) with MDA-MB-435; 429 µM (inactive) with OVCAR-3; 0.203 µM (active) with HL-60; 1.08 µM (active) in the test on UACC-62. The GI50 with NCI-H226 is 239 µM (inactive); in the test with BT-549, 286 µM (inactive); with NCI-H522 it was 22.6 µM (inactive); with MOLT-4, 0.0582 µM (active); in the test on ACHN it was 0.277 µM (active); in the test with IGROV-1, 313 µM (inactive). In addition, the GI50 was 0.514 µM (active) in the test on 786-0; 0.207 µM (active) in the test on HCT-116; 0.186 µM (active) in the test on M14; 3.15 µM (inactive) in the test on SF-268; 267 µM (inactive) in the test with EKVX; 120 µM (inactive) in the test with UACC-257. Besides, the figures for the GI50 in the test with NCI-H460 and in the test with SK-OV-3 were 0.0885 µM (active) and 198 µM (inactive), respectively.

Regarding `O=C(/C=C/c1ccc(OCc2ccccc2)c(OCc2ccccc2)c1)OCc1ccccc1`, the GI50 in the test with UO-31, with T47D, in the test with MDA-MB-435, with OVCAR-3, with HL-60 and in the test on UACC-62 was > 100 µM (inactive) throughout. Also, the GI50 in the test on NCI-H226, in the test with BT-549, with NCI-H522, in the test on MOLT-4, with ACHN and with IGROV-1 was > 100 µM (inactive) in each case. Further, the GI50 in the test with 786-0, in the test on HCT-116, with M14, with SF-268, in the test with EKVX and in the test on UACC-257 was > 100 µM (inactive) in each case. For the same compound, the GI50 in the test on NCI-H460 and in the test with SK-OV-3 was > 100 µM (inactive) throughout.

In the case of `O=c1oc2ccccc2cc1-c1ccc([N+](=O)[O-])cc1`, the GI50 in the test with UO-31 is > 100 µM (inactive); in the test on T47D, > 100 µM (inactive); with MDA-MB-435 it was > 100 µM (inactive); with OVCAR-3, > 100 µM (inactive); with HL-60, > 100 µM (inactive); with UACC-62, 89.5 µM (inactive). In addition, the GI50 was > 100 µM (inactive) in the test with NCI-H226; 16.5 µM (inactive) with BT-549; 56.1 µM (inactive) in the test with NCI-H522; > 100 µM (inactive) in the test with MOLT-4; > 100 µM (inactive) in the test with ACHN; > 100 µM (inactive) in the test on IGROV-1. Also, the GI50 was 9.29 µM (inactive) with 786-0; 36.7 µM (inactive) in the test with HCT-116; > 100 µM (inactive) in the test with M14; 24.8 µM (inactive) in the test on SF-268; > 100 µM (inactive) in the test on EKVX; > 100 µM (inactive) in the test with UACC-257. The GI50 in the test on NCI-H460 is 14.6 µM (inactive); in the test on SK-OV-3, 65.3 µM (inactive).

With `CCCCCC/C=C\CCCCCCCCCc1c(O)c(OC)cc(O)c1CN(C)C`, the GI50 in the test on UO-31 is 4.21 µM (inactive); with T47D it was 1.76 µM (inactive); in the test with MDA-MB-435, 6.64 µM (inactive); in the test on OVCAR-3 it was 6.35 µM (inactive); in the test on HL-60, 1.6 µM (inactive); in the test on UACC-62, 10.6 µM (inactive). Further, the GI50 is 17 µM (inactive) with NCI-H226; 9.2 µM (inactive) in the test on BT-549; 1.64 µM (inactive) with NCI-H522; 1.69 µM (inactive) in the test on MOLT-4; 10.7 µM (inactive) in the test with ACHN; 3.18 µM (inactive) in the test on IGROV-1. Besides, the GI50 was 1.7 µM (inactive) with 786-0; 3.85 µM (inactive) in the test on HCT-116; 11.4 µM (inactive) with M14; > 10 µM (inactive) in the test on SF-268; 10.7 µM (inactive) in the test on EKVX; 11.4 µM (inactive) in the test with UACC-257. Moreover, the values for the GI50 in the test on NCI-H460 and in the test on SK-OV-3 were 3.67 µM (inactive) and 14.9 µM (inactive), respectively.

Regarding `CCOc1ccc2nc(NC(=O)C(=O)C(C(=O)c3ccccc3-c3ccccc3)C3OC(=O)c4ccccc43)sc2c1` (configuration not stated), the GI50 with UO-31 was 22.4 µM (inactive); in the test with T47D, 13.9 µM (inactive); in the test on MDA-MB-435 it was 25.4 µM (inactive); with OVCAR-3, 18.7 µM (inactive); in the test with HL-60 it was 22.8 µM (inactive); with UACC-62, 16.4 µM (inactive). For the same compound, the GI50 was 5.31 µM (inactive) in the test on NCI-H226; 16.7 µM (inactive) with BT-549; 16.7 µM (inactive) with NCI-H522; 13.2 µM (inactive) in the test with MOLT-4; 30.2 µM (inactive) in the test on ACHN; 26.7 µM (inactive) in the test with IGROV-1. In addition, the GI50 is 16.5 µM (inactive) in the test with 786-0; 18.4 µM (inactive) with HCT-116; 27.6 µM (inactive) with M14; 19.8 µM (inactive) in the test on SF-268; 19.8 µM (inactive) in the test with EKVX; 22.4 µM (inactive) in the test with UACC-257. Moreover, the GI50 with NCI-H460 was 19.5 µM (inactive); with SK-OV-3 it was 25.9 µM (inactive).

As to `Nc1ncnc2c1ncn2C1OC(CO)C(O)C1N` (configuration not stated), the GI50 with UO-31, in the test with T47D, in the test on MDA-MB-435, in the test with OVCAR-3, with HL-60 and with UACC-62 was > 100 µM (inactive) throughout. In addition, the GI50 with NCI-H226, with BT-549, in the test with NCI-H522, in the test on MOLT-4, in the test with ACHN and in the test with IGROV-1 was > 100 µM (inactive) each time. The GI50 with 786-0, with HCT-116, in the test on M14, with SF-268, with EKVX and in the test with UACC-257 was > 100 µM (inactive) throughout. The GI50 in the test with NCI-H460 and in the test with SK-OV-3 was > 100 µM (inactive) in each case.

Regarding `CCC(=O)NCCc1c2c3c(ccnc3c3ncsc13)-c1ccccc1N2` [KUANONIAMINE C], the GI50 in the test on UO-31 was 0.53 µM (active); in the test with T47D it was 6.75 µM (inactive); in the test with MDA-MB-435 it was 2.26 µM (inactive); with OVCAR-3, 10.5 µM (inactive); with HL-60, 0.845 µM (active); in the test with UACC-62, 1.63 µM (inactive). Further, the GI50 in the test with NCI-H226 is 0.91 µM (active); in the test on BT-549 it was 2.69 µM (inactive); in the test with NCI-H522 it was 2.62 µM (inactive); with MOLT-4 it was 1.4 µM (inactive); in the test with ACHN it was 0.583 µM (active); in the test with IGROV-1 it was 2.81 µM (inactive). The GI50 in the test with 786-0 is 0.791 µM (active); with HCT-116, 0.582 µM (active); in the test with M14, 2.73 µM (inactive); in the test with SF-268 it was 1.45 µM (inactive); with EKVX, 5.22 µM (inactive); in the test with UACC-257 it was 6 µM (inactive). Moreover, the GI50 with NCI-H460 is 1.16 µM (inactive); in the test with SK-OV-3, 12.2 µM (inactive).

With `CC(=O)c1c(SCCN2CCCCCC2)n(-c2ccccc2)c(=S)n(-c2ccccc2)c1=O`, the GI50 was 2.31 µM (inactive) in the test with T47D; 12.9 µM (inactive) in the test on MDA-MB-435; 3.13 µM (inactive) in the test on OVCAR-3; 0.019 µM (active) in the test on HL-60; 7.85 µM (inactive) in the test with UACC-62; 29 µM (inactive) with NCI-H226. Further, the GI50 in the test on BT-549 was 16.6 µM (inactive); with NCI-H522, 1.43 µM (inactive); in the test with MOLT-4, 2.16 µM (inactive); in the test with ACHN it was 1.68 µM (inactive); with IGROV-1, 8.3 µM (inactive); in the test on 786-0 it was 1.73 µM (inactive). In addition, the GI50 in the test with HCT-116 is 6.81 µM (inactive); in the test with M14, 2.15 µM (inactive); with SF-268, 11 µM (inactive); in the test on EKVX, 19.2 µM (inactive); in the test with UACC-257, 4.07 µM (inactive); with NCI-H460, 24.7 µM (inactive). In addition, in the test on SK-OV-3, the GI50 was 48.3 µM (inactive).

Regarding `CC1(C)OC[C@@H]([C@@]2(COC(c3ccccc3)(c3ccccc3)c3ccccc3)CC=CC(=O)O2)O1`, the GI50 in the test with UO-31 is 32.4 µM (inactive); in the test with T47D it was 48.5 µM (inactive); in the test on MDA-MB-435, 33.1 µM (inactive); with OVCAR-3, 35.2 µM (inactive); with HL-60 it was 33.7 µM (inactive); in the test with UACC-62, 28 µM (inactive). The GI50 in the test on NCI-H226 was 32.7 µM (inactive); in the test on BT-549, 24.2 µM (inactive); with NCI-H522, 18.4 µM (inactive); with MOLT-4 it was 28.3 µM (inactive); with ACHN, 30.5 µM (inactive); with 786-0, 35.1 µM (inactive). In addition, the GI50 in the test on HCT-116 was 30.3 µM (inactive); in the test with M14, 39.7 µM (inactive); in the test with SF-268, 45.5 µM (inactive); in the test with EKVX it was 30.9 µM (inactive); in the test on UACC-257, 43.5 µM (inactive); with NCI-H460, 32.1 µM (inactive). Further, the GI50 with SK-OV-3 is 38.8 µM (inactive).

For `CC(=O)NCCC1CNc2ccccc21` (configuration not stated), the GI50 in the test on UO-31, with T47D, with MDA-MB-435, with OVCAR-3, with HL-60 and in the test with UACC-62 was > 100 µM (inactive) in each case. Besides, the GI50 in the test on NCI-H226, with BT-549, in the test with NCI-H522, in the test with MOLT-4, in the test on ACHN and in the test with IGROV-1 was > 100 µM (inactive) each time. Also, the GI50 in the test with HCT-116, with M14, in the test with SF-268, in the test on EKVX, in the test on UACC-257 and with NCI-H460 was > 100 µM (inactive) throughout. For the same compound, the GI50 in the test with SK-OV-3 was > 100 µM (inactive).

The term GI50 denotes the concentration giving 50% growth inhibition.
